This is an account of results in PMC3880318, “Green Tea and One of Its Constituents, Epigallocatechine-3-gallate, Are Potent Inhibitors of Human 11β-hydroxysteroid Dehydrogenase Type 1” (PLoS ONE, 2014).

Where “and” joins values, the source holds several entries; their conditions need not be identical. Identical values can stand only once. Entries after “also recorded” stand apart in the source; their conditions may differ. Like-named read-outs stand apart in the source and are kept apart here.

Test [1] deals with T1, human microsomal 11β-HSD1 (Homo sapiens, UniProt P28845). Briefly: Inhibition of cortisone reduction (11β-HSD1 reductase activity) in human liver microsomes, cortisol quantified by HPLC. The conditions noted are these: for IC50: IC50, inhibition of cortisone reduction. For orientation: Microsomes from liver hold many membrane-bound enzymes, among them those of drug oxidation.
Procedure: (§1) In terms of 11β-HSD1 reductase activity, inhibition analysis was performed as follows: 50 µl of tea extract were added to a mixture containing 400 µM cortisone, 0.8 mM NADPH solution in 100 mM phosphate buffer pH 7.4. […] The total assay volume was 250 µl.
(§2) The reaction was stopped by adding 250 µl ice-cold ethylacetate and vortexing, followed by a 30 sec centrifugation at 13,000 RPM in a microcentrifuge. The organic phase was separated and the aqueous phase extracted two more times with 250 µl ethylacetate. The ethylacetate phases were combined and the solvent was removed in a SpeedVac (ThermoSavant). The resulting residue was dissolved in 150 µl methanol-water (58∶42, v/v) and used for metabolite quantification by HPLC.
(§3) Product yield was quantified by peak integration of the cortisone and cortisol peaks, respectively.
(§4) The data obtained were plotted as substrate-velocity curves and analyzed by nonlinear-regression.

In test [2] the target is T2, purified 11β-HSD1 (Homo sapiens, UniProt P28845).
T2 construct: from tissue; host or cells: human liver
The test can be described thus: Inhibition of cortisone reduction by purified human 11β-HSD1. The test is classed as biochemical. As for the experimental part:
The total assay volume was 250 µl.

Test [3] has as its target T3, 11β-HSD1 in human liver microsomes (Homo sapiens, UniProt P28845).
T3 construct: The reaction was started by adding 5 µl of human liver microsomes (218 µg protein); from tissue; host or cells: human liver (microsomal fraction)
Briefly: Inhibition of cortisol oxidation (11β-HSD1 dehydrogenase activity) in human liver microsomes, HPLC. To be noted: pH 9.0, NADP. The test is classed as biochemical. As for the experimental part:
Here, the incubation time was 60 min at 37°C in a 100 mM phosphate buffer pH 9.0.

For test [4], the target named is T1, human microsomal 11β-HSD1. The test can be described thus: biochemical.
Procedure: as §1, §2, §3, §4
The target of test [5] is T2, purified 11β-HSD1. The test can be described thus: Western Blot analysis for EGCG-induced 11β-HSD1 aggregate formation. To be noted: preincubation 3 h at 37°C, up to 100 µM. As for the experimental part: To exclude EGCG-induced 11β-HSD1 aggregate formation, purified 11β-HSD1 (2.14 µg) was preincubated with 25–100 µM EGCG (3 h at 37°C) and then prepared for sodium dodecyl sulfate polyacrylamide gel electrophoresis (SDS-PAGE) according to the manufacturer's protocol. As a control, the same volume of untreated purified protein was loaded onto the parallel lane.
The resolved proteins were transferred to nitrocellulose membranes. After blocking the membrane for 1 h at RT with 5% non-fat dry milkpowder in PBS-buffer, the blocking solution was replaced by the primary antibody at a 1∶2,000 dilution and the membrane was incubated at 4°C for about 16 h. Primary and secondary antibodies were diluted in PBS containing 2.5% non-fat dry milkpowder. The membrane was washed three times and then the corresponding secondary antibody was added at a dilution of 1∶10,000. After a 1.5 h incubation at RT the membrane was washed three times and the specific Western blot signals of 11β-HSD1 were detected by the ECL Western Blotting System according to the manufacturer's instructions.

[6] abbreviates: read-out: inhibition of cortisone reduction.

T1 sequence (P28845 whole entry): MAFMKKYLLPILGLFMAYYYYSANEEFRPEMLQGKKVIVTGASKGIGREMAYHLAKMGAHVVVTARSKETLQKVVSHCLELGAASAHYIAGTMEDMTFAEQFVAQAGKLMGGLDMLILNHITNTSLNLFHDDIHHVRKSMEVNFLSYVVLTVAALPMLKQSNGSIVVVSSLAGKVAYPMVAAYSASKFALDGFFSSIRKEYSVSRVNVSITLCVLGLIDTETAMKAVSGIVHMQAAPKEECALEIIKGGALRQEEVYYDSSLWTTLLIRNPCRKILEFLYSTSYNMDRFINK
T2 sequence (P28845 whole entry): as above
T3 sequence (P28845 whole entry): as above

As for `Oc1cc(O)c2c(c1)O[C@H](c1cc(O)c(O)c(O)c1)[C@H](O)C2` [EGC, (−)-epigallocatechin], the inhibition (in general, the drop in the measured response relative to a control, in per cent) at 200 µM in test [1] (setting [6]) was roughly 25%.

Turning to `O=C(O[C@@H]1Cc2c(O)cc(O)cc2O[C@@H]1c1cc(O)c(O)c(O)c1)c1cc(O)c(O)c(O)c1` [EGCG, (−)-epigallocatechin-3-gallate], the type of inhibition result is “mixed inhibition; also recorded: mixed mode” in test [2] (purified 11β-HSD1, with respect to cortisone) and “mixed inhibition” in test [1] (human liver microsomes, with respect to cortisone). Moreover, the Ki (usually a dissociation constant, usually derived from enzyme kinetics or from competition with a known ligand) in test [2] (purified human 11β-HSD1, read-out: Ki (estimated by Dixon-plot) on cortisone reduction) is 20.9 µM; in test [2] (purified human 11β-HSD1, read-out: Ki (non-linear regression) on cortisone reduction) it was 18.7 µM; in test [4] it was 22.7 µM and 17.8 µM. Also, the concentration for half-maximal inhibition (IC50) (commonly the concentration that gives 50% inhibition) in test [3] was found to be 131 µM; in test [1] (human liver microsomes, freshly prepared solution), 58 µM; in test [1] (stored solution, human liver microsomes, aqueous solution stored at −20°C for one week), 26.9 µM. Further, the protein aggregate formation entry in test [5] is “did not induce protein aggregate formation”. Further, in test [1] (setting [6]), the inhibition at 100 µM was roughly 75%.

For `Oc1cc(O)c2c(c1)O[C@@H](c1cc(O)c(O)c(O)c1)[C@H](O)C2` [GC, (−)-gallocatechin], the inhibition at 100 µM in test [1] (setting [6]) is roughly 53%.

With `OO` [hydrogen peroxide, reference compound], the “influence on cortisol production” value is “No 11β-HSD1 inhibition” in test [2] (up to 300 µM, purified human 11β-HSD1) and “No 11β-HSD1 inhibition” in test [1] (up to 300 µM, human liver microsomes).
